Laboratory results published in US20240239787A1, “COMPOUNDS FOR USE IN THE TREATMENT OF CANCER” (Nanyang Technological University, priority 2021, published 2024).

What was measured:
zebrafish larvae = assay: Vascularization of vhl mutant and wide type zebrafish larvae (confocal imaging); format: in vivo; conditions: vhl^hu2117 crosses, 10 μM; non-treatment approximately one quarter
Procedure: Vasculature zebrafishes were obtained from natural crosses of the AB wild-type strain or vhl^+/hu2117 carriers on the fli1a:egfp^y1 transgenic background (which fluorescently marks the vasculature). JW4 and JQ1-CBT were dissolved in DMSO and the mixture was applied to embryos at equimolar concentration of 10 μM, with J252 (10 μM) and JQ1 (10 μM) used for the control experiments. […] The vascular plexus was imaged on a Zeiss LSM800 confocal microscope. Green: blood vessel tracker, .ex: 488 nm, .em: 520/30 nm; red: . ex: 564 nm, .em: 610/30 nm.

BRD4 [1] = molecular target: T1, BRD4 (Homo sapiens, UniProt O60885); assay: Hook effect: BRD4 degradation at extended degrader concentrations under hypoxia; format: cell-based; design: endogenous in cells
Procedure: HeLa, Hek293T, MDA-MB-231, 4T1 or B16F10 cells (1.5×10^6 cells/mL) were treated with J266 (10 μM) for 6 h before incubating with JQ1-CBT at the indicated concentrations and time. This entire incubation was performed in normoxia condition. For NTR-moiety caged JW4, the cells were treated with JW4 (10 μM) 6 h prior to the addition of JQ1-CBT for a subsequent 12 h, and was performed entirely under hypoxic condition. Comparison of the downstream effect between the controls and drug-treated cells were completely executed in hypoxic condition. To work up, the cells were washed with cold PBS (pH 7.4) twice, and lysed with RIPA buffer supplemented with protease inhibitor cocktail and phosphatase inhibitor cocktail for 10 min at 4° C. Then, the lysed cells were collected and centrifuged at 13,500 rpm for 20 min at 4° C. The supernatant was collected and the protein concentration was analyzed by NanoDrop™ 2000/2000c Spectrophotometers. The lysate volumes were fine-tuned and loaded onto a Mini-PROTEAN® TGX™ 4-20% Precast Gel and was separated by SDS-PAGE. Then, the gel was transferred onto a PVDF membrane (100 V, 90 min, 4° C.), washed with TBS-T twice, and blocked with 1% BSA for 1 h at r.t. Next, the membrane was incubated with primary antibody overnight at 4° C., washed thrice with TBS-T, followed by incubation with goat anti-rabbit IgG (H+L) Secondary Antibody, HRP for 1 h. […]

zebrafish embryos = assay: Yolk extension phenotype of zebrafish embryos; format: in vivo; conditions: 50 μM, hypoxia-normoxia alternating 8 h
Procedure: Wide type zebrafish embryos at 12 hpf was incubated with J252 (50 μM), JW4 (50 μM), or the mixture of JW4 (50 μM) and JQ1-CBT (50 μM) in hypoxia-normoxia alternative condition for 8 h at 28° C. After that, the embryos were further incubated in normoxia condition at 28° C. for 16 h before the yolk extension phenotypes were visualized under Zeiss LSM800 confocal microscope using bright-field channel. Embryos with JW4+JQ1-CBT treatment under normoxia were used as the controls.

HIF-1α = HIF-1α level in hypoxic Hela cells (immunofluorescence imaging, Western blot); format: cell-based, human
Procedure: HeLa, Hek293T, MDA-MB-231, 4T1 or B16F10 cells (1.5×10^6 cells/mL) were treated with J266 (10 μM) for 6 h before incubating with JQ1-CBT at the indicated concentrations and time. This entire incubation was performed in normoxia condition. For NTR-moiety caged JW4, the cells were treated with JW4 (10 μM) 6 h prior to the addition of JQ1-CBT for a subsequent 12 h, and was performed entirely under hypoxic condition. Comparison of the downstream effect between the controls and drug-treated cells were completely executed in hypoxic condition. To work up, the cells were washed with cold PBS (pH 7.4) twice, and lysed with RIPA buffer supplemented with protease inhibitor cocktail and phosphatase inhibitor cocktail for 10 min at 4° C. Then, the lysed cells were collected and centrifuged at 13,500 rpm for 20 min at 4° C. The supernatant was collected and the protein concentration was analyzed by NanoDrop™ 2000/2000c Spectrophotometers. The lysate volumes were fine-tuned and loaded onto a Mini-PROTEAN® TGX™ 4-20% Precast Gel and was separated by SDS-PAGE. Then, the gel was transferred onto a PVDF membrane (100 V, 90 min, 4° C.), washed with TBS-T twice, and blocked with 1% BSA for 1 h at r.t. Next, the membrane was incubated with primary antibody overnight at 4° C., washed thrice with TBS-T, followed by incubation with goat anti-rabbit IgG (H+L) Secondary Antibody, HRP for 1 h. The membrane was supplemented with Radiance Q chemiluminescent ECL substrate and visualized using Amersham™ ImageQuant™ 800 biomolecular imager. B-Tubulin was used as the internal control.
Hela cells were plated at a density of 8×10^4 cells/mL in each well of the eight-well ibidi dishes before experiment. To sustain the hypoxia-induced factor throughout the drug treatment process, drug incubation was performed entirely in hypoxic chamber. […] The fluorescence of the alleviated HIF-1α expression upon drug treatment was visualized with Carl Zeiss LSM 800 microscopes (Hoechst 33258: Ex=405 nm, Em=460/50 nm; Alexa Fluor 488: Ex=488 nm, Em=515/30 nm; Alexa Fluor 594: Ex=561 nm, Em=617/20 nm).

NTR = NTR enzymatic cleavage in vitro (LC-MS); format: biochemical
Excerpt: Upon the exertion of external enzymatic stimuli, the NTR-responsive moiety undergoes self-immolation to unleash the amino group. Simultaneously, the presence of a reduction agent cleaves the -StBu group to liberate thiol group (—SH), creating the cleaved-J266. The presence of a readily reactive amino group and thiol group on cleaved-J266, with the co-insertion of JQ1-CBT would spontaneously induce the CBT-cysteine orthogonal click conjugation, shaping the luciferin-based structure in click-J252 for targeted protein disruption (FIG. 12a). To validate the kinetics of ENCTAC formation, JW4 was tested against the presence of ntr enzyme accompanied by the co-factor, NADH, at 37° C. across a range of time settings in LC-MS system. The formation of J252 in the presence of J266 and JQ1-CBT was also evaluated by LC-MS.
A MS vial was sequentially added JW4 (10 μM), nicotinamide adenine dinucleotide (NADH, 0.5 mM) and NTR (40 μg/mL), and the mixture was dissolved in PBS (pH 7.4, 10 mM) to a total volume of 500 μL. The mixture in the vial was vortexed and incubated at 37° C. with varying time control from 0-240 min. Structural mass analysis was performed to observe any molecular mass alteration.
A MS vial was sequentially added JW4 (10 μM) or J268 ([…]), NADH (0.5 mM) and NTR (concentration range of 0-40 μg/mL), and the mixture was dissolved in PBS (pH 7.4, 10 mM) to a final volume of 500 μL. The mixture in the vial was vortexed and incubated at 37° C. for 120 min before subjecting to structural mass analysis.

BRD4 [2] = molecular target: T1, BRD4; assay: BRD4 degradation by Western blot in HEK293T cells; format: cell-based; design: endogenous in cells; host or cells: HEK293T; conditions: 12 h
Excerpt: The effective production of BRD4 heterobifunctional degraders in solution allowed us to investigate the function of ENCTAC components in biological applications. […] Particularly, NTR responsive JW4, the pomalidomide-containing compound that can target CRBN and is a universal E3 ligase, is expected to be uncaged through NTR-assisted nitro and GSH reduction once it enters the hypoxic cells. The exposed cysteine groups are then readily linked with the CBT moieties on the JQ1-CBT fragments via a specific bioorthogonal click reaction. Besides, the JQ1 warheads are presumed to be simultaneously bound to the BRD4 proteins, thus forming bifunctional degraders in-situ for localized proteolysis (FIG. 17a). […] As proof-of-concept, the control molecule J266 that can only respond to GSH but not NTR, was first introduced into the HEK293T cell line (for 6 h), with subsequent addition of the JQ1-CBT (for 12 h). After intracellular formation of the click-J252, the proteolysis process was observed by western blot analysis.
HeLa, Hek293T, MDA-MB-231, 4T1 or B16F10 cells (1.5×10^6 cells/mL) were treated with J266 (10 μM) for 6 h before incubating with JQ1-CBT at the indicated concentrations and time. This entire incubation was performed in normoxia condition. […] The supernatant was collected and the protein concentration was analyzed by NanoDrop™ 2000/2000c Spectrophotometers. […]

[3] = system: broad range of enzymes and chemical agents; assay: Selectivity of JW4 with or without NADH (LC-MS); format: biochemical; conditions: JW4 10 μM, reagents 0-40 μg/mL, 120 min
Procedure: A MS vial was sequentially added JW4 (10 μM), a reagent selected from sodium chloride, calcium chloride, ascorbic acid, glucose, cysteine, furin, CtsB, monoamine oxidase A (MAO-A) and monoamine oxidase B (MAO-B) (concentration range of 0-40 μg/mL), with or without the addition of NADH (0.5 mM) and the mixture was dissolved in PBS (pH 7.4, 10 mM) to a final volume of 500 μL. The mixture in the vial was vortexed and incubated at 37° C. for 120 min before it was subject to structural mass analysis.

CK2α [4] = molecular target: T2, CK2α (Homo sapiens, UniProt P68400); assay: Concentration-dependent test for CK2α degradation (immunofluorescence / Western blot); format: cell-based; conditions: 24 h
T2 sequence (P68400 whole entry): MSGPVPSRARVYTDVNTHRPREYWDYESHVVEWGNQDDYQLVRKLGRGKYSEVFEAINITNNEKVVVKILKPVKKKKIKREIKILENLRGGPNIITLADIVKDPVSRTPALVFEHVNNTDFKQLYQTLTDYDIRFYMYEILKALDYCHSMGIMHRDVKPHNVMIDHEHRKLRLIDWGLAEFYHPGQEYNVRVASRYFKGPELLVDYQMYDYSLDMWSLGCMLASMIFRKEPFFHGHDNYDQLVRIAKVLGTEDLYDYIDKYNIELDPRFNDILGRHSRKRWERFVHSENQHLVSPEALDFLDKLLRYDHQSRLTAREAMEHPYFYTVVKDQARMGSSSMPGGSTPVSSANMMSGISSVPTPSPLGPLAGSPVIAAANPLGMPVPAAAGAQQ
Procedure: Based on the established method (From Merck), the lysates were loaded into the wells in a Mini-PROTEAN® TGX™ 4-20% Precast Gel and run for separation in 30 min under 200 V.
Cell lines including HEK293T and MCF-7 was incubated with varied concentrations of T44 or T120 for 24 h. After that, the protein level was evaluated by the above immunofluorescence staining protocol. Alternatively, the protein level was evaluated by Western blot analysis. Particularly, The lysates of each group of cells were collected and centrifuged at 12,000×g for 20 min at 4° C. Protein levels in supernatants were determined using Nanodrop and equalized to the same concentration and boiled for 10 min with SDS-PAGE sample loading buffer before being separated using SDS-PAGE and transferred to the PVDF membrane. The membrane was then blocked with 5% BSA-TBST blocking buffer overnight at 4° C. Subsequently, CK2α Rabbit polyclonal Antibody (Cell signalling, #2656) was incubated overnight at 4° C. in 1% BSA-TBST buffer. After series of washing, the goat-anti rabbit IGG (H&L) secondary antibody was added and incubated for 1 h in 1% BSA-TBST. All signals were visualized using […] (Image quant 800) system.

CK2α [5] = molecular target: T2, CK2α; assay: Immunofluorescence staining of CK2α degradation over time; format: cell-based; design: Hek293T, MCF-7, and U205 cells were chosen as they can express different levels of CK2α protein; endogenous in cells; host or cells: HEK293T, MCF-7, U2OS; conditions: 0.1 or 1 μM, prolonged time (up to 20 h); Hek293T, MCF-7, U205 cells
Procedure: After the synthesis of T44 and T120 in Examples 1 and 2, their properties for protein degradation were examined. Hek293T, MCF-7, and U205 cells were chosen as they can express different levels of CK2α protein.
[…] Upon washing with PBS buffer thrice, the protein degradation was examined by immunofluorescence staining.
Each group of cells with density of 5×10^4 cells in each well of 8-well ibidi-dishes was treated with T120 or T44 at different concentration (0.1 μM or 1 μM) and time (0 h, 6 h, 18 h or 30 h). After treatment, the cells were fixed with 4% paraformaldehyde for 15 min, permeabilized with 0.25% Triton™ X-100 for 10 min and blocked with 5% BSA for 1 h at room temperature. The cells were then labelled with CK2α Rabbit polyclonal Antibody (Cell signalling, #2656) in 1% BSA and incubated for 3 h at r.t. Subsequently, Alexa Fluor 488-Goat Anti-Rabbit IgG secondary antibody was stained for 30 min at r.t. The nucleus was stained with Hoechst 33342 for 30 min at r.t. The degradation of CK2α protein was visualized with Carl Zeiss LSM 800 microscopes. (Hoechst 33342: Ex=405 nm, Em=460/50 nm; Alexa Fluor 488: Ex=488 nm, Em=515/30 nm).

Row | Structure (SMILES) | vascularized larvae (zebrafish larvae) | BRD4 degradation level (BRD4 [1]; 50 μM) | concentration at which decrease in efficiency of proteolysis started (hook effect) (BRD4 [1]; hypoxia) | yolk extension phenotype at 36 hpf (zebrafish embryos) | HIF-1α protein level (HIF-1α) | NTR enzymatic uncaging (self-immolation) followed by LC-MS (NTR; 10 μM substrate, NTR 40 μg/mL, NADH, 37° C., span of 4 h) | Kcat of NTR uncaging (NTR; NTR, NADH 0.5 mM, PBS pH 7.4, 37° C.) | Km (NTR; NTR, NADH 0.5 mM, PBS pH 7.4, 37° C., read-out: Km of NTR uncaging) | BRD4 degradation by independent treatment (alone) (BRD4 [2]) | cleavage by different components and enzymes [3] | CK2α degradation effect, concentration dependence (CK2α [4]; HEK293T and MCF-7 cells) | CK2α fluorescence change with different concentrations (CK2α [4]; MCF-7 cells) | CK2α antibody fluorescence signal in cells after incubation (CK2α [5])
1 | Cc1sc2c(c1C)C(c1ccc(Cl)cc1)=N[C@@H](CC(=O)Oc1ccc3nc(C4N=C(C(=O)NCCOCCOCC(=O)Nc5cccc6c5C(=O)N(C5CCC(=O)NC5=O)C6=O)CS4)sc3c1)c1nnc(C)n1-2 (some centres unmarked) [J252] | 22.5% | around 20% | 5 µM | similarly less extension of yolk | able to downregulate | – | – | – | – | – | – | – | –
2 | CC(C)(C)SSC[C@@H](NC(=O)OCc1ccc([N+](=O)[O-])cc1)C(=O)NCCOCCOCC(=O)Nc1cccc2c1C(=O)N(C1CCC(=O)NC1=O)C2=O (some centres unmarked) [JW4, Pomalidomide-PEG-NTR] | – | – | – | – | did not induce HIF-1α elimination | near to completion | 0.000262 s⁻¹ | 101 µM | did not induce any degradation | no obvious cleavage except for NTR+NADH | – | – | –
3 | COc1cc(/C=N/n2c(SC)nnc2-c2ccc(OCCOCCOCCOCc3cn(CCOCC(=O)Nc4cccc5c4C(=O)N(C4CCC(=O)NC4=O)C5=O)nn3)cc2)c(Br)cc1O (centres unmarked) [T44] | – | – | – | – | – | – | – | – | – | – | cell-dependent | no obvious fluorescence change | decreased fluorescence signals
